Assay results as given in patent publication US5789438A, “Inhibitors of farnesyl-protein transferase” (Merck & Co., Inc., priority 1997, dated 1998).

Molecular target: T1, human FPTase (Homo sapiens, UniProt P49354+P49356)
T1 construct: made in house
Assay: In vitro inhibition of human farnesyl-protein transferase ([3H]-FPP incorporation into Ras-CVIM)
Type: biochemical
Conditions: 100 nM Ras-CVIM, 30 min, read-out: IC50, inhibitory activity against human FPTase

Row | SMILES | IC50
1 | CC(=O)O[C@H]1CC[C@]2(C)[C@H]3Cc4c(O)cc5c(c4O[C@@]3(C)CC[C@H]2C1(C)C)COC5=O [Compound II] | < 20 µM
2 | COC1OC(OC)c2c1cc(O)c1c2O[C@@]2(C)CC[C@H]3C(C)(C)[C@@H](OC(C)=O)CC[C@]3(C)[C@H]2C1 (some centres unmarked) [Compound I] | < 20 µM
